Values after ≈ are worked out from the molar mass of the structure shown.

The target of series [1] is Serine/threonine-protein kinase PLK2 (Homo sapiens, UniProt Q9NYY3). The experiment in a line: Inhibition of recombinant full length human GST-tagged PLK2 expressed in baculovirus expression system using ser/thr 16 as substrate incubated for 1 hr by Z'-LYTE assay.
The subject of another series is K562. The experiment in a line: cells. To be noted: Homo sapiens, K562, 72 h.
The next series concerns MCF7. The experiment in a line: cells. To be noted: Homo sapiens, MCF7, 72 h.
In another series the test system is Huh-7. As to the kind of experiment: cells. To be noted: Homo sapiens, Huh-7, 72 h.
For another series, the system named is A549. The experiment in a line: cells. The note with it: Homo sapiens, A549, 72 h.
A further series deals with NCI-H1975. The experiment in a line: cells. The note with it: Homo sapiens, NCI-H1975, 72 h.
The next series concerns HeLa. As to the kind of experiment: cells. To be noted: Homo sapiens, 72 h.
Series [2] can be described thus: Solubility of compound in PBS buffer at pH 7.4 incubated for 12 hrs by UV-visible spectrophotometry. Format: physicochemical.

Chain of Serine/threonine-protein kinase PLK2 (Q9NYY3 whole entry): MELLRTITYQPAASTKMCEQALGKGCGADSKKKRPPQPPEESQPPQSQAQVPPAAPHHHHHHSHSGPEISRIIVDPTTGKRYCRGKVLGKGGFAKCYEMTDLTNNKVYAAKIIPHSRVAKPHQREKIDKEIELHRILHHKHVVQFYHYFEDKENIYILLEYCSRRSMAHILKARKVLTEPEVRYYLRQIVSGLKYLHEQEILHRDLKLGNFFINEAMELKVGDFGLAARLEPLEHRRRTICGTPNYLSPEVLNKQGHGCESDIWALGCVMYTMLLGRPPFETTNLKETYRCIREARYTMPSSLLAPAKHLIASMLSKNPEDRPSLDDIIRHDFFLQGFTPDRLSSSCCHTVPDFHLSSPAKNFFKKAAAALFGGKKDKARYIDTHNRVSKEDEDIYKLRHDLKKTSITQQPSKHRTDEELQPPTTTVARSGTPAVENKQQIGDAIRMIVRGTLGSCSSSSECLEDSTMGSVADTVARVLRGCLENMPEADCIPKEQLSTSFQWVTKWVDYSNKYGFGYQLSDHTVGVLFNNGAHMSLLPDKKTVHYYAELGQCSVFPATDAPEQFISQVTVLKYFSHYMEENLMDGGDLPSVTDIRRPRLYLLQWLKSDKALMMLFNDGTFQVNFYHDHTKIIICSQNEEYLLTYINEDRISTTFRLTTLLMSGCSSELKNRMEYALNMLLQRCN

For `CC[C@@H]1C(=O)N(C)c2cnc(Nc3ccc(C(=O)NC4CCCC4)cc3CCO)nc2N1C1CCCC1`, in series [1], the IC50 was determined as 0.036 µM. Besides, the GI50 in the series on K562 came out at 0.0574 µM; with MCF7, 0.0649 µM; with Huh-7 it was 0.0255 µM; in the series with A549, 0.0768 µM; in the series on NCI-H1975, 0.197 µM; in the series on HeLa, 0.0451 µM.

As for `CC[C@@H]1C(=O)N(C)c2cnc(Nc3cc(F)c(C(=O)NCCN(C)C)cc3OCCO)nc2N1C1CCCC1`, the GI50 with K562 was determined as 0.731 µM; with MCF7, 1.55 µM; in the series with Huh-7, 0.807 µM; in the series on A549, 1.72 µM; in the series with NCI-H1975 it was 5.13 µM; in the series with HeLa it was 0.435 µM.

For `CC[C@@H]1C(=O)N(C)c2cnc(Nc3ccc(C(=O)NC4CCCC4)cc3OCCO)nc2N1C1CCCC1`, the IC50 in series [1] is 0.152 µM. The GI50 with K562 was found to be 0.0913 µM; with MCF7 it was 0.0989 µM; in the series on Huh-7, 0.11 µM; in the series with A549, 0.0712 µM; with NCI-H1975 it was 0.158 µM; with HeLa, 0.0507 µM.

On to `CC[C@@H]1C(=O)N(C)c2cnc(Nc3ccc(C(=O)NC4CCOCC4)cc3OCCO)nc2N1C(C)C`, for which the GI50 with K562 stood at 0.773 µM; in the series with MCF7, 1.27 µM; in the series on Huh-7, 0.722 µM; with A549, 3.44 µM; in the series with NCI-H1975, 3.55 µM; in the series on HeLa, 1.75 µM.

In series [2], `CC[C@@H]1C(=O)N(C)c2cnc(Nc3cc(F)c(C(=O)NC(C)C)cc3OCCO)nc2N1C1CCCC1` displayed a solubility at 12 h of under 0.15 mg/mL. Besides, the 50% growth inhibitory concentration (GI50) with K562 was determined as 0.0452 µM; in the series with MCF7, 0.0306 µM; in the series with Huh-7, 0.0924 µM; with A549 it was 0.0676 µM; in the series on NCI-H1975, 0.128 µM; in the series on HeLa, 0.0284 µM.

With `CC[C@@H]1C(=O)N(C)c2cnc(Nc3ccc(C(=O)NCCN(C)C)cc3OCCO)nc2N1C1CCCC1`, the IC50 in series [1] amounted to 0.265 µM. The GI50 was found to be 0.0582 µM with K562; 0.312 µM with MCF7; 0.239 µM with Huh-7; 0.283 µM in the series on A549; 3.2 µM with NCI-H1975; 0.133 µM in the series with HeLa.

Consider `CC[C@@H]1C(=O)N(C)c2cnc(Nc3ccc(C(=O)NC4CCN(C(C)C)CC4)cc3OCCO)nc2N1C1CCCC1`, for which the GI50 in the series on K562 was 0.0658 µM; with MCF7, 0.14 µM; with Huh-7, 0.216 µM; in the series with A549, 0.138 µM; with NCI-H1975, 0.171 µM; in the series with HeLa, 0.122 µM.

As for `CC[C@@H]1C(=O)N(C)c2cnc(Nc3cc(F)c(C(=O)NC)cc3OCCO)nc2N1C1CCCC1`, the GI50 in the series with K562 stood at 0.12 µM; in the series on MCF7, 0.223 µM; in the series on Huh-7, 0.113 µM; with A549 it was 0.171 µM; with NCI-H1975, 0.51 µM; in the series with HeLa it was 0.0471 µM.

The compound `CC[C@@H]1C(=O)N(C)c2cnc(Nc3ccc(C(=O)NC4CCN(C)CC4)cc3OCCO)nc2N1C1CCCC1` displayed a solubility at 12 h in series [2] of 1.14 mg/mL (≈ 2070 µM). Further, the GI50 was 0.0696 µM in the series on K562; 0.0615 µM in the series on MCF7; 0.0713 µM with Huh-7; 0.036 µM in the series on A549; 0.131 µM in the series with NCI-H1975; 0.0292 µM in the series on HeLa.

Turning to `CC[C@@H]1C(=O)N(C)c2cnc(Nc3ccc(C(N)=O)cc3OCCO)nc2N1C1CCCC1`, the IC50 in series [1] amounted to 0.29 µM. For the same compound, the GI50 turned out to be 0.132 µM in the series with K562; 0.252 µM in the series with MCF7; 0.129 µM in the series with Huh-7; 0.447 µM with A549; 1.2 µM with NCI-H1975; 0.118 µM in the series with HeLa.

Take `CC[C@@H]1C(=O)N(C)c2cnc(Nc3ccc(C(=O)NC(C)C)cc3OCCO)nc2N1C1CCCC1`: the GI50 with K562 amounted to 0.0474 µM; with MCF7, 0.162 µM; in the series with Huh-7, 0.0659 µM; with A549 it was 0.0793 µM; in the series on NCI-H1975, 0.677 µM; in the series on HeLa it was 0.0247 µM.

With `CC[C@@H]1C(=O)N(C)c2cnc(Nc3ccc(C(=O)NC4CCN(C)CC4)cc3OCCO)nc2N1C(C)C`, the GI50 in the series with K562 is 6.5 µM; in the series on MCF7 it was over 10 µM; in the series on Huh-7, over 10 µM; in the series on A549 it was over 10 µM; in the series on NCI-H1975, over 10 µM; in the series with HeLa, over 10 µM.

`CC[C@@H]1C(=O)N(C)c2cnc(Nc3cc(F)c(C(=O)NC4CCN(C)CC4)cc3OCCO)nc2N1C(C)C`: the GI50 is 0.54 µM in the series on K562; 0.833 µM in the series on MCF7; 0.885 µM in the series on Huh-7; 0.852 µM in the series on A549; 2.12 µM in the series on NCI-H1975; 0.275 µM in the series on HeLa.

For the compound `CC[C@@H]1C(=O)N(C)c2cnc(Nc3ccc(C(=O)NC4CCCC4)cc3OCCO)nc2N1C(C)C`, the GI50 with K562 worked out at 1.25 µM; in the series with MCF7 it was 1.82 µM; in the series with Huh-7, 1.45 µM; in the series on A549, 2.59 µM; in the series on NCI-H1975, 2.37 µM; in the series with HeLa, 1.12 µM.

For the compound `CC[C@@H]1C(=O)N(C)c2cnc(Nc3ccc(C(=O)NCCN4CCN(C)CC4)cc3OCCO)nc2N1C1CCCC1`, the GI50 in the series with K562 worked out at 0.187 µM; in the series on MCF7, 0.871 µM; with Huh-7 it was 0.876 µM; with A549, 0.54 µM; in the series with NCI-H1975 it was 3.81 µM; in the series with HeLa, 0.892 µM.

In the case of `CC[C@@H]1C(=O)N(CCO)c2cnc(Nc3ccc(C(=O)NC4CCCC4)cc3OC)nc2N1C1CCCC1`, the GI50 with K562 stood at 4.44 µM; in the series on MCF7, 3.72 µM; in the series with Huh-7, 4.47 µM; in the series on A549 it was 5.02 µM; in the series on NCI-H1975, 3.83 µM; in the series with HeLa, 4.82 µM.

Turning to `CC[C@@H]1C(=O)N(C)c2cnc(Nc3cc(F)c(C(=O)NC4CCOCC4)cc3OCCO)nc2N1C(C)C`, the IC50 in series [1] was 0.869 µM. In addition, the GI50 with K562 worked out at 0.915 µM; in the series on MCF7, 0.931 µM; in the series on Huh-7, 1.11 µM; in the series with A549, 1.17 µM; in the series with NCI-H1975, 1.92 µM; in the series on HeLa, 0.351 µM.

`CC[C@@H]1C(=O)N(C)c2cnc(Nc3cc(F)c(C(=O)NCCN4CCN(C)CC4)cc3OCCO)nc2N1C1CCCC1`: in series [1], the IC50 came to 0.167 µM. The GI50 turned out to be 1.07 µM in the series on K562; 0.908 µM in the series with MCF7; 0.831 µM in the series on Huh-7; 1.19 µM in the series on A549; 2.47 µM with NCI-H1975; 0.225 µM in the series with HeLa.

In the case of `CCNC(=O)c1ccc(Nc2ncc3c(n2)N(C2CCCC2)[C@H](CC)C(=O)N3C)c(OCCO)c1`, the GI50 with K562 was found to be 0.0989 µM; in the series on MCF7 it was 0.331 µM; in the series with Huh-7 it was 0.0816 µM; in the series with A549, 0.197 µM; in the series with NCI-H1975, 0.519 µM; in the series on HeLa, 0.0823 µM.

As to `CC[C@@H]1C(=O)N(C)c2cnc(Nc3ccc(C(=O)NC4CC4)cc3OCCO)nc2N1C1CCCC1`, the GI50 in the series on K562 is 0.143 µM; with MCF7, 0.269 µM; in the series on Huh-7, 0.197 µM; with A549, 0.322 µM; in the series with NCI-H1975 it was 0.676 µM; in the series with HeLa, 0.129 µM.

As to `CC[C@@H]1C(=O)N(C)c2cnc(Nc3cc(F)c(C(=O)NCCN4CCOCC4)cc3OCCO)nc2N1C1CCCC1`, the GI50 was 0.1 µM in the series with K562; 0.405 µM in the series on MCF7; 0.232 µM in the series on Huh-7; 0.172 µM in the series with A549; 1.15 µM in the series on NCI-H1975; 0.036 µM in the series on HeLa.

For `CCC1C(=O)N(C)c2cnc(Nc3cc(F)c(C(=O)NC4CCCC4)cc3OCCO)nc2N1C1CCCC1` (stereo not drawn), the GI50 with K562 was 0.265 µM; in the series on MCF7, 0.158 µM; in the series on Huh-7, 0.349 µM; with A549, 0.352 µM; in the series on NCI-H1975, 0.567 µM; with HeLa it was 0.123 µM.

For `CC[C@@H]1C(=O)N(C)c2cnc(Nc3ccc(C(=O)NC)cc3OCCO)nc2N1C1CCCC1`, the GI50 in the series with K562 came out at 0.0469 µM; in the series on MCF7 it was 0.135 µM; in the series with Huh-7 it was 0.0524 µM; in the series with A549 it was 0.0844 µM; in the series on NCI-H1975, 0.361 µM; with HeLa, 0.0254 µM.

On to `CC[C@@H]1C(=O)N(C)c2cnc(Nc3ccc(C(C)=O)cc3OCCO)nc2N1C1CCCC1`, for which the IC50 in series [1] came to 0.132 µM. Besides, the GI50 in the series with K562 came to 0.0381 µM; with MCF7, 0.107 µM; with Huh-7, 0.056 µM; in the series with A549, 0.0876 µM; in the series on NCI-H1975 it was 0.22 µM; in the series on HeLa, 0.042 µM.

On to `CC[C@@H]1C(=O)N(COC)c2cnc(Nc3ccc(C(=O)NC4CCCC4)cc3OC)nc2N1C1CCCC1`, for which the GI50 in the series on K562 was over 10 µM; in the series on MCF7, over 10 µM; in the series with Huh-7 it was 6.76 µM; with A549, 8.13 µM; with NCI-H1975 it was over 10 µM; with HeLa it was over 10 µM.

Turning to `CCNC(=O)c1cc(OCCO)c(Nc2ncc3c(n2)N(C2CCCC2)[C@H](CC)C(=O)N3C)cc1F`, the IC50 in series [1] is 0.107 µM. The GI50 came to 0.0863 µM in the series on K562; 0.13 µM in the series on MCF7; 0.141 µM in the series on Huh-7; 0.0983 µM in the series on A549; 0.253 µM in the series on NCI-H1975; 0.0394 µM in the series with HeLa.

Turning to `CC[C@@H]1C(=O)Nc2cnc(Nc3ccc(C(=O)NC4CCCC4)cc3OC)nc2N1C1CCCC1`, the GI50 with K562 stood at 0.81 µM; in the series on MCF7, 0.744 µM; with Huh-7 it was 0.429 µM; in the series on A549 it was 0.729 µM; with NCI-H1975 it was 1.1 µM; with HeLa, 0.728 µM.

`CC[C@@H]1C(=O)N(C)c2cnc(Nc3ccc(C(=O)NC4CCOCC4)cc3OCCO)nc2N1C1CCCC1`: the GI50 in the series on K562 was determined as 0.0638 µM; in the series on MCF7 it was 0.0643 µM; in the series on Huh-7 it was 0.0199 µM; in the series on A549 it was 0.0794 µM; in the series on NCI-H1975 it was 0.166 µM; in the series on HeLa it was 0.0419 µM.

For the origin of these results see ChEMBL document CHEMBL4406868, “Structure-based design and SAR development of novel selective polo-like kinase 1 inhibitors having the tetrahydropteridin scaffold” (Eur J Med Chem, 2019).
